Assay results published in the supplement of paper PMC10307832.

Experiments:
Experiment in all cases: relative viability (nuclei count vs DMSO), 5 days (fraction); higher = more cells survive
ABC-1 = system: ABC-1
Method in brief: (§1)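 Nuclei were stained with Hoechst during a one-step fixation (final 0.05% Triton X-100, 1% formaldehyde, 1 ug/ml Hoechst) carried out 5 days after dosing, then counted on 4× images. The cells, lung cancer lines in 1536-well plates, had been dosed by pin tool the day after seeding with one drug alone or a fixed anchor-drug dose plus five library-drug doses (not always all listed) in √10 steps. Relative viability is the nuclei count in treated wells divided by that in vehicle wells, and each value is the median of duplicate plates.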

CAL-12T = system: CAL-12T
Method in brief: as §1

COR-L 105 = system: COR-L 105
Method in brief: as §1

ChaGo-K-1 = system: ChaGo-K-1
Method in brief: as §1

EMC-BAC-2 = system: EMC-BAC-2
Method in brief: as §1

EPLC-272H = system: EPLC-272H
Method in brief: as §1

HCC-15 = system: HCC-15
Method in brief: as §1

HCC-78 = system: HCC-78
Method in brief: as §1

HOP-62 = system: HOP-62
Method in brief: as §1

LXF-289 = system: LXF-289
Method in brief: as §1

NCI-H1666 = system: NCI-H1666
Method in brief: as §1

NCI-H1755 = system: NCI-H1755
Method in brief: as §1

NCI-H1915 = system: NCI-H1915
Method in brief: as §1

NCI-H1975 = system: NCI-H1975
Method in brief: as §1

NCI-H2023 = system: NCI-H2023
Method in brief: as §1

NCI-H2085 = system: NCI-H2085
Method in brief: as §1

NCI-H2126 = system: NCI-H2126
Method in brief: as §1

NCI-H3122 = system: NCI-H3122
Method in brief: as §1

NCI-H322M = system: NCI-H322M
Method in brief: as §1

NCI-H441 = system: NCI-H441
Method in brief: as §1

UMC-11 = system: UMC-11
Method in brief: as §1

Structure (SMILES): O=c1cc(N2CCOCC2)oc2c(-c3cccc4c3sc3ccccc34)cccc12 + CC(C)C[C@H](NC(=O)[C@H](Cc1ccccc1)NC(=O)c1cnccn1)B(O)O [Bortezomib] (partner 0.002 µM)
- relative viability (ABC-1; first compound 0.01 µM): 0.331
- relative viability (ABC-1; first compound 0.03162 µM): 0.347
- relative viability (ABC-1; first compound 0.1 µM): 0.336
- relative viability (ABC-1; first compound 0.3162 µM): 0.261
- relative viability (ABC-1; first compound 1 µM): 0.332
- relative viability (CAL-12T; first compound 0.01 µM): 0.857
- relative viability (CAL-12T; first compound 0.1 µM): 0.985
- relative viability (CAL-12T; first compound 0.3162 µM): 1.01
- relative viability (CAL-12T; first compound 1 µM): 0.925
- relative viability (COR-L 105; first compound 0.01 µM): 0.793
- relative viability (COR-L 105; first compound 0.03162 µM): 0.793
- relative viability (COR-L 105; first compound 0.1 µM): 0.769
- relative viability (COR-L 105; first compound 0.3162 µM): 0.895
- relative viability (COR-L 105; first compound 1 µM): 0.807
- relative viability (ChaGo-K-1; first compound 0.01 µM): 0.64
- relative viability (ChaGo-K-1; first compound 0.03162 µM): 0.915
- relative viability (ChaGo-K-1; first compound 0.1 µM): 0.897
- relative viability (ChaGo-K-1; first compound 0.3162 µM): 1.04
- relative viability (ChaGo-K-1; first compound 1 µM): 0.977
- relative viability (EMC-BAC-2; first compound 0.01 µM): 1.06
- relative viability (EMC-BAC-2; first compound 0.03162 µM): 1.09
- relative viability (EMC-BAC-2; first compound 0.1 µM): 1.15
- relative viability (EMC-BAC-2; first compound 0.3162 µM): 1.11
- relative viability (EMC-BAC-2; first compound 1 µM): 1.02
- relative viability (EPLC-272H; first compound 0.01 µM): 0.903
- relative viability (EPLC-272H; first compound 0.03162 µM): 0.916
- relative viability (EPLC-272H; first compound 0.3162 µM): 0.854
- relative viability (EPLC-272H; first compound 1 µM): 0.935
- relative viability (HCC-15; first compound 0.01 µM): 0.948
- relative viability (HCC-15; first compound 0.03162 µM): 1.06
- relative viability (HCC-15; first compound 0.1 µM): 1.12
- relative viability (HCC-15; first compound 0.3162 µM): 0.948
- relative viability (HCC-15; first compound 1 µM): 1.04
- relative viability (HCC-78; first compound 0.01 µM): 0.544
- relative viability (HCC-78; first compound 0.03162 µM): 0.467
- relative viability (HCC-78; first compound 0.1 µM): 0.566
- relative viability (HCC-78; first compound 0.3162 µM): 0.482
- relative viability (HCC-78; first compound 1 µM): 0.468
- relative viability (HOP-62; first compound 0.01 µM): 0.497
- relative viability (HOP-62; first compound 0.03162 µM): 0.565
- relative viability (HOP-62; first compound 0.1 µM): 0.963
- relative viability (HOP-62; first compound 0.3162 µM): 0.81
- relative viability (HOP-62; first compound 1 µM): 0.723
- relative viability (LXF-289; first compound 0.01 µM): 1.01
- relative viability (LXF-289; first compound 0.03162 µM): 0.967
- relative viability (LXF-289; first compound 0.1 µM): 1.1
- relative viability (LXF-289; first compound 0.3162 µM): 1.03
- relative viability (LXF-289; first compound 1 µM): 1.05
- relative viability (NCI-H1666; first compound 0.01 µM): 0.678
- relative viability (NCI-H1666; first compound 0.03162 µM): 0.804
- relative viability (NCI-H1666; first compound 0.1 µM): 0.909
- relative viability (NCI-H1666; first compound 0.3162 µM): 0.703
- relative viability (NCI-H1666; first compound 1 µM): 0.751
- relative viability (NCI-H1755; first compound 0.01 µM): 1.02
- relative viability (NCI-H1755; first compound 0.03162 µM): 0.873
- relative viability (NCI-H1755; first compound 0.1 µM): 0.959
- relative viability (NCI-H1755; first compound 0.3162 µM): 1.03
- relative viability (NCI-H1755; first compound 1 µM): 0.977
- relative viability (NCI-H1915; first compound 0.01 µM): 0.994
- relative viability (NCI-H1915; first compound 0.03162 µM): 1.01
- relative viability (NCI-H1915; first compound 0.1 µM): 0.867
- relative viability (NCI-H1915; first compound 0.3162 µM): 0.94
- relative viability (NCI-H1915; first compound 1 µM): 0.995
- relative viability (NCI-H1975; first compound 0.01 µM): 0.384
- relative viability (NCI-H1975; first compound 0.03162 µM): 0.387
- relative viability (NCI-H1975; first compound 0.1 µM): 0.479
- relative viability (NCI-H1975; first compound 0.3162 µM): 0.349
- relative viability (NCI-H1975; first compound 1 µM): 0.372
- relative viability (NCI-H2023; first compound 0.01 µM): 1.04
- relative viability (NCI-H2023; first compound 0.03162 µM): 1.02
- relative viability (NCI-H2023; first compound 0.1 µM): 1.05
- relative viability (NCI-H2023; first compound 0.3162 µM): 0.936
- relative viability (NCI-H2023; first compound 1 µM): 0.907
- relative viability (NCI-H2085; first compound 0.01 µM): 0.995
- relative viability (NCI-H2085; first compound 0.03162 µM): 1.01
- relative viability (NCI-H2085; first compound 0.1 µM): 1.03
- relative viability (NCI-H2085; first compound 0.3162 µM): 1.06
- relative viability (NCI-H2085; first compound 1 µM): 0.967
- relative viability (NCI-H2126; first compound 0.01 µM): 1.14
- relative viability (NCI-H2126; first compound 0.03162 µM): 1.11
- relative viability (NCI-H2126; first compound 0.1 µM): 1.13
- relative viability (NCI-H2126; first compound 0.3162 µM): 1.06
- relative viability (NCI-H2126; first compound 1 µM): 1.14
- relative viability (NCI-H3122; first compound 0.01 µM): 1.02
- relative viability (NCI-H3122; first compound 0.03162 µM): 0.907
- relative viability (NCI-H3122; first compound 0.1 µM): 1.02
- relative viability (NCI-H3122; first compound 0.3162 µM): 0.947
- relative viability (NCI-H3122; first compound 1 µM): 1.02
- relative viability (NCI-H322M; first compound 0.01 µM): 1.24
- relative viability (NCI-H322M; first compound 0.03162 µM): 1.39
- relative viability (NCI-H322M; first compound 0.3162 µM): 1.19
- relative viability (NCI-H322M; first compound 1 µM): 1.03
- relative viability (NCI-H441; first compound 0.01 µM): 0.443
- relative viability (NCI-H441; first compound 0.03162 µM): 0.565
- relative viability (NCI-H441; first compound 0.1 µM): 0.487
- relative viability (NCI-H441; first compound 0.3162 µM): 0.301
- relative viability (NCI-H441; first compound 1 µM): 0.684
- relative viability (UMC-11; first compound 0.01 µM): 0.63
- relative viability (UMC-11; first compound 0.03162 µM): 0.505
- relative viability (UMC-11; first compound 0.1 µM): 0.72
- relative viability (UMC-11; first compound 0.3162 µM): 0.736
- relative viability (UMC-11; first compound 1 µM): 0.728
